Laboratory results from patent US8148422B2, “Sulfonamides as TRPM8 modulators” (Janssen Pharmaceutica, NV, priority 2008, dated 2012).

Target: T1, canine TRPM8 (Canis lupus familiaris, UniProt Q1A7N1)
T1 construct: expressed in transfected cells
Assay: In vitro canine TRPM8 functional assay (Ca2+-sensitive fluorescent dye, FLIPR or FDSS, icilin challenge)
Assay type: cell-based
Details: HEK293 cells stably expressing canine TRPM8; for inhibition at 0.2 µM: 0.2 μM compound, icilin challenge; for IC50: icilin at approx. 80% maximal response, eight-point dose-response, single determinations unless otherwise noted, read-out: IC50
Procedure: The functional activity of compounds of the formula (I) was determined by measuring changes in intracellular calcium concentration using a Ca^2+-sensitive fluorescent dye. The changes in fluorescent signal were monitored by a fluorescence plate reader, either a FLIPR™ (Molecular Devices) or FDSS (Hamamatsu).
At 24 hrs prior to assay, HEK293 cells stably expressing canine TRPM8 were seeded in culture medium in black wall, clear-base poly-D-lysine coated 384-well plates (BD Biosciences, NJ, USA) and grown overnight in 5% CO2 at 37° C. On assay day, growth media was removed and cells were loaded with Calcium 3 Dye (Molecular Devices) for 35 min at 37° C., under 5% CO2 and then for 25 min at room temperature and atmosphere. Subsequently, cells were tested for agonist-induced increases in intracellular Ca^2+ levels using FLIPR™ or FDSS. Cells were challenged with a compound of the Formula (I) (at varying concentrations) and intracellular Ca^2+ was measured for 5 min prior to the addition of icilin to all wells to achieve a final concentration that produces approximately an 80% maximal response. EC50 or IC50 values for compounds of the present invention were determined from eight-point dose-response studies. Curves were generated using the average of quadruplicate wells for each data point.

T1 sequence (Q1A7N1 1-1104): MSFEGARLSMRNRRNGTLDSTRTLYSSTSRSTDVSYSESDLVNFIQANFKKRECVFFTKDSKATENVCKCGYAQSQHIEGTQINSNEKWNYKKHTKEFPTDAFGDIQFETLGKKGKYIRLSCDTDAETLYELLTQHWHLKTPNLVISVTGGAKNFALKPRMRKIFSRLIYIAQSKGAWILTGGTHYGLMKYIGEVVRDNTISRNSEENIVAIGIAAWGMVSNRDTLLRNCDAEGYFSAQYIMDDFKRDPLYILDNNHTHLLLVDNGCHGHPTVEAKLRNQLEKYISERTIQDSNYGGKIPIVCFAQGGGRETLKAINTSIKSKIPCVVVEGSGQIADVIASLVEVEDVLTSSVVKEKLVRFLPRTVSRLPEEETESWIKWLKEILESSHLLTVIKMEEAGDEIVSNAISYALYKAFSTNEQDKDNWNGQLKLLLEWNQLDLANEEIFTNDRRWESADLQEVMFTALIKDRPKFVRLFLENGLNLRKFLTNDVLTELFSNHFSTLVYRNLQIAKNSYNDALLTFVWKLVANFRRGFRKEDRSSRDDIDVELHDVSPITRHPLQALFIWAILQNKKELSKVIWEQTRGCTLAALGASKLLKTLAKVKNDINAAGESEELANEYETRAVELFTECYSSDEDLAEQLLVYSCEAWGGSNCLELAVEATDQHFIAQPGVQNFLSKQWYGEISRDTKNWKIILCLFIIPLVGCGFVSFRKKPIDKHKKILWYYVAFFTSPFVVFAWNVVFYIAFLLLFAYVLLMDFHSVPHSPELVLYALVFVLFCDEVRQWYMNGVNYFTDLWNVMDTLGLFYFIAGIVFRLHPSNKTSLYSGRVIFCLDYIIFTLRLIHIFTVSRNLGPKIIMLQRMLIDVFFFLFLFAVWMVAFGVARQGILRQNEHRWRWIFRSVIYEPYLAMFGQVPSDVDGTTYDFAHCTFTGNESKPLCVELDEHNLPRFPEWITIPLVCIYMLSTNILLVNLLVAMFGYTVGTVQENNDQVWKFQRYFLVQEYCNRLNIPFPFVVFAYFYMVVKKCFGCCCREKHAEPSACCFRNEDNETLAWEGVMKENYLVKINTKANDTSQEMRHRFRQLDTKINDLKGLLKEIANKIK

Question: With `Cc1c(N(CCCCC(F)(F)F)S(=O)(=O)CCN2CCC(C(=O)O)CC2)sc2ccccc12` [Cpd 86, N-(3-Methylbenzo[b]thiophen-2-yl)-N-(5,5,5-trifluoropent-1-yl)-2-(4-carboxypiperidin-1-yl)ethylsulfonamide] as the compound, how does the inhibition at 0.2 µM read?
Answer: The inhibition at 0.2 µM was 34%.

Question: Which inhibition at 0.2 µM does the source give for `Cc1c(N(Cc2ccc(OC(F)(F)F)cc2)S(=O)(=O)CCN2CCCC2C)sc2ccccc12` (stereo not shown) [Cpd 37, N-(3-Methylbenzo[b]thiophen-2-yl)-N-(4-trifluoromethoxy-benzyl)-2-(2-methylpyrrolidin-1-yl)ethylsulfonamide] here?
Answer: Its inhibition at 0.2 µM is 100%.

Question: What about the IC50 of the same compound?
Answer: Its IC50 is 20 nM.

Question: How did the inhibition at 0.2 µM turn out when `Cc1c(N(Cc2ccc(F)cc2)S(=O)(=O)CCN2CCCC(F)(F)C2)sc2ccccc12` [Cpd 69, N-(3-Methyl-benzo[b]thiophen-2-yl)-N-(4-fluoro-benzyl)-2-(3,3-difluoropiperidin-1-yl)-ethylsulfonamide] was run?
Answer: The inhibition at 0.2 µM was 99%.

Question: And the IC50?
Answer: Its IC50 is 12 nM.

Question: Which inhibition at 0.2 µM does the source give for `O=S(=O)(CCN1CCC(c2ccccc2)CC1)N(Cc1ccc(OC(F)(F)F)cc1)c1ccc2ccccc2c1` [Cpd 53, N-(Naphth-2-yl)-N-(4-trifluoromethoxy-benzyl)-2-(4-phenylpiperidin-1-yl)ethylsulfonamide] here?
Answer: The inhibition at 0.2 µM was 58%.

Question: Which results are given for `CC(=O)N(CCS(=O)(=O)N(CCCCC(F)(F)F)c1sc2ccccc2c1C)CC(C)C` [Cpd 88, N-(3-Methylbenzo[b]thiophen-2-yl)-N-(5,5,5-trifluoro-n-pent-1-yl)-2-(N-acetyl-isobutylamino)ethylsulfonamide]?
Answer: inhibition at 0.2 µM: 91%; IC50: 59 nM

Question: With `Cc1c(N(Cc2ccc(OC(F)(F)F)cc2)S(=O)(=O)CCNCCC(F)(F)F)sc2ccccc12` [Cpd 13, N-(3-Methylbenzo[b]thiophen-2-yl)-N-(4-trifluoromethoxy-benzyl)-2-(3,3,3-trifluoropropylamino)ethylsulfonamide] as the compound, how does the inhibition at 0.2 µM read?
Answer: Its inhibition at 0.2 µM is 72%.

Question: What about the IC50 of the same compound?
Answer: The IC50 was 74 nM.

Question: What does the source list for `Cc1c(N(Cc2ccc(OC(F)(F)F)cc2)S(=O)(=O)CCN2CCC(F)(F)CC2)sc2ccccc12` [Cpd 42, N-(3-Methylbenzo[b]thiophen-2-yl)-N-(4-trifluoromethoxy-benzyl)-2-(4,4-difluoropiperidin-1-yl)ethylsulfonamide]?
Answer: inhibition at 0.2 µM: 98%; IC50: 17 nM

Question: Which inhibition at 0.2 µM does the source give for `O=S(=O)(CCN1CCCCC1)N(Cc1ccc(OC(F)(F)F)cc1)c1cc2ccccc2s1` [Cpd 2, N-(Benzo[b]thiophen-2-yl)-N-(4-trifluoromethoxy-benzyl)-2-(piperidin-1-yl)ethylsulfonamide] here?
Answer: The inhibition at 0.2 µM was 92%.

Question: What about the IC50 of the same compound?
Answer: The IC50 was 33 nM.

Question: `O=S(=O)(CCN1CCC(F)(F)C1)N(Cc1ccc(OC(F)(F)F)cc1)c1sc2ccccc2c1Br` [Cpd 68, N-(3-Bromobenzo[b]thiophen-2-yl)-N-(4-trifluoromethoxy-benzyl)-2-(3,3-difluoropyrrolidin-1-yl)ethylsulfonamide] was tested. Which inhibition at 0.2 µM did it give?
Answer: Its inhibition at 0.2 µM is 102%.

Question: And the IC50?
Answer: The IC50 was 72 nM.

Question: With `Cc1c(N(Cc2ccc(OC(F)(F)F)cc2)S(=O)(=O)CCNCC(F)(F)F)sc2ccccc12` [Cpd 60, N-(3-Methylbenzo[b]thiophen-2-yl)-N-(4-trifluoromethoxy-benzyl)-2-(2,2,2-trifluoroethylamino)ethylsulfonamide] as the compound, how does the inhibition at 0.2 µM read?
Answer: The inhibition at 0.2 µM was 100%.

Question: What about the IC50 of the same compound?
Answer: The IC50 was 14 nM.

Question: How did the inhibition at 0.2 µM turn out when `Cc1c(N(Cc2ccc(OC(F)(F)F)cc2)S(=O)(=O)CCN2CCOCC2)sc2ccccc12` [Cpd 32, N-(3-Methylbenzo[b]thiophen-2-yl)-N-(4-trifluoromethoxy-benzyl)-2-(morpholin-4-yl)ethylsulfonamide] was run?
Answer: Its inhibition at 0.2 µM is 99%.

Question: What about the IC50 of the same compound?
Answer: Its IC50 is 12 nM.

Question: `CCCN(CCC)CCS(=O)(=O)N(Cc1ccc(OC(F)(F)F)cc1)c1ccc2ccccc2c1` [Cpd 50, N-(Naphth-2-yl)-N-(4-trifluoromethoxy-benzyl)-2-(di-propylamino)ethylsulfonamide] was tested. Which inhibition at 0.2 µM did it give?
Answer: The inhibition at 0.2 µM was 62%.

Question: `Cc1c(N(Cc2ccc(OC(F)(F)F)cc2)S(=O)(=O)CCN2CCS(=O)(=O)CC2)sc2ccccc12` [Cpd 35, N-(3-Methylbenzo[b]thiophen-2-yl)-N-(4-trifluoromethoxy-benzyl)-2-(1,1-dioxothiomorpholin-4-yl)ethylsulfonamide] was tested. Which inhibition at 0.2 µM did it give?
Answer: Its inhibition at 0.2 µM is 97%.

Question: What about the IC50 of the same compound?
Answer: Its IC50 is 30 nM.

Question: Which results are given for `Cc1c(N(Cc2ccc(OC(F)(F)F)cc2)S(=O)(=O)CCN2CCCC2)sc2ccccc12` [Cpd 36, N-(3-Methylbenzo[b]thiophen-2-yl)-N-(4-trifluoromethoxy-benzyl)-2-(pyrrolidin-1-yl)ethylsulfonamide]?
Answer: inhibition at 0.2 µM: 94%; IC50: 56 nM

Question: How did the inhibition at 0.2 µM turn out when `CCCN(CCC)CCS(=O)(=O)N(Cc1ccc(OC(F)(F)F)cc1)c1sc2ccccc2c1Br` [Cpd 5, N-(3-Bromobenzo[b]thiophen-2-yl)-N-(4-trifluoromethoxy-benzyl)-2-(di-propylamino)ethylsulfonamide] was run?
Answer: The inhibition at 0.2 µM was 101%.

Question: And the IC50?
Answer: The IC50 was 22 nM.

Question: `Cc1c(N(Cc2ccc(F)c(C(F)(F)F)c2)S(=O)(=O)CCN2CCCC(F)(F)C2)sc2ccccc12` [Cpd 70, N-(3-Methylbenzo[b]thiophen-2-yl)-N-(4-fluoro-3-trifluoromethyl-benzyl)-2-(3,3-difluoropiperidin-1-yl)ethylsulfonamide] was tested. Which inhibition at 0.2 µM did it give?
Answer: Its inhibition at 0.2 µM is 100%.

Question: And the IC50?
Answer: Its IC50 is 4 nM.

Question: Which inhibition at 0.2 µM does the source give for `Cc1c(N(Cc2ccc(OC(F)(F)F)cc2)S(=O)(=O)CCN2CC(F)(F)C2)sc2ccccc12` [Cpd 46, N-(3-Methylbenzo[b]thiophen-2-yl)-N-(4-trifluoromethoxy-benzyl)-2-(3,3-ditluoroazetidin-1-yl)ethylsulfonamide] here?
Answer: The inhibition at 0.2 µM was 101%.

Question: What about the IC50 of the same compound?
Answer: The IC50 was 4 nM.

Question: What does the source list for `Cc1c(N(Cc2ccc(OC(F)(F)F)cc2)S(=O)(=O)CCN2CCC(F)(F)C2)sc2ccccc12` [Cpd 45, N-(3-Methylbenzo[b]thiophen-2-yl)-N-(4-trifluoromethoxy-benzyl)-2-(3,3-difluoropyrrolidin-1-yl)ethylsulfonamide]?
Answer: inhibition at 0.2 µM: 99%; IC50: 9 nM

Question: Which inhibition at 0.2 µM does the source give for `Cc1c(N(Cc2ccc(OC(F)(F)F)cc2)S(=O)(=O)CCN2CCNCC2)sc2ccccc12` [Cpd 26, N-(3-Methylbenzo[b]thiophen-2-yl)-N-(4-trifluoromethoxy-benzyl)-2-(piperazin-1-yl)ethylsulfonamide] here?
Answer: The inhibition at 0.2 µM was 23%.

Question: `Cc1c(N(Cc2ccc(OC(F)(F)F)cc2)S(=O)(=O)CCN(C)CC(C)C)sc2ccccc12` [Cpd 11, N-(3-Methylbenzo[b]thiophen-2-yl)-N-(4-trifluoromethoxy-benzyl)-2-(methyl-isobutylamino)ethylsulfonamide] was tested. Which inhibition at 0.2 µM did it give?
Answer: The inhibition at 0.2 µM was 100%.

Question: What about the IC50 of the same compound?
Answer: Its IC50 is 22 nM.

Question: Which results are given for `Cc1c(N(Cc2ccc(F)cc2)S(=O)(=O)CCN(CC(C)C)CC(C)C)sc2ccccc12` [Cpd 76, N-(3-Methylbenzo[b]thiophen-2-yl)-N-(4-fluoro-benzyl)-2-(di-iso-butylamino)ethylsulfonamide]?
Answer: inhibition at 0.2 µM: 99%; IC50: 25 nM

Question: With `CCCN(CCC)CCS(=O)(=O)N(Cc1ccc(OC(F)(F)F)cc1)c1sc2ccccc2c1Cl` [Cpd 4, N-(3-Chlorobenzo[b]thiophen-2-yl)-N-(4-trifluoromethoxy-benzyl)-2-(di-propylamino)ethylsulfonamide] as the compound, how does the inhibition at 0.2 µM read?
Answer: The inhibition at 0.2 µM was 98%.

Question: And the IC50?
Answer: Its IC50 is 24 nM.

Question: With `CCCN(C)CCS(=O)(=O)N(Cc1ccc(OC(F)(F)F)cc1)c1sc2ccccc2c1C` [Cpd 7, N-(3-Methylbenzo[b]thiophen-2-yl)-N-(4-trifluoromethoxy-benzyl)-2-(methyl-propylamino)ethylsulfonamide] as the compound, how does the inhibition at 0.2 µM read?
Answer: Its inhibition at 0.2 µM is 99%.

Question: What about the IC50 of the same compound?
Answer: Its IC50 is 29 nM.

Question: How did the inhibition at 0.2 µM turn out when `O=S(=O)(CCN1CCc2ccccc2C1)N(Cc1ccc(OC(F)(F)F)cc1)c1ccc2ccccc2c1` [Cpd 54, N-(Naphth-2-yl)-N-(4-trifluoromethoxy-benzyl)-2-(1,2,3,4-tetrahydroisoquinolin-2-yl)ethylsulfonamide] was run?
Answer: The inhibition at 0.2 µM was 86%.

Question: And the IC50?
Answer: Its IC50 is 51 nM.

Question: With `Cc1c(N(Cc2ccc(OC(F)(F)F)cc2)S(=O)(=O)CCN2CCC(O)C2)sc2ccccc12` (stereo not shown) [Cpd 38, N-(3-Methylbenzo[b]thiophen-2-yl)-N-(4-trifluoromethoxy-benzyl)-2-(3-hydroxypyrrolidin-1-yl)ethylsulfonamide] as the compound, how does the inhibition at 0.2 µM read?
Answer: The inhibition at 0.2 µM was 99%.

Question: What about the IC50 of the same compound?
Answer: The IC50 was 30 nM.

Question: For `CCN(CCS(=O)(=O)N(CCC1CC1)c1sc2ccccc2c1C)CC(C)C` [Cpd 94, N-(3-Methylbenzo[b]thiophen-2-yl)-N-(2-cyclopropyl-ethyl)-2-(ethyl-isobutylamino)ethylsulfonamide], which inhibition at 0.2 µM is on record?
Answer: The inhibition at 0.2 µM was 103%.

Question: What about the IC50 of the same compound?
Answer: Its IC50 is 27 nM.

Question: `CC(=O)N1CCN(CCS(=O)(=O)N(Cc2ccc(OC(F)(F)F)cc2)c2ccc3ccccc3c2)CC1` [Cpd 58, N-(Naphth-2-yl)-N-(4-trifluoromethoxy-benzyl)-2-(4-acetylpiperazin-1-yl)ethylsulfonamide] was tested. Which inhibition at 0.2 µM did it give?
Answer: Its inhibition at 0.2 µM is 67%.

Question: Which results are given for `Cc1c(N(Cc2ccc(OC(F)(F)F)cc2)S(=O)(=O)CCN(C)C(C)C)sc2ccccc12` [Cpd 8, N-(3-Methylbenzo[b]thiophen-2-yl)-N-(4-trifluoromethoxy-benzyl)-2-(methyl-isopropylamino)ethylsulfonamide]?
Answer: inhibition at 0.2 µM: 94%; IC50: 50 nM

Question: With `Cc1c(N(Cc2ccc(OC(F)(F)F)cc2)S(=O)(=O)CCN(C(C)C)C(C)C)sc2ccccc12` [Cpd 59, N-(3-Methylbenzo[b]thiophen-2-yl)-N-(4-trifluoromethoxy-benzyl)-2-(di-isopropylamino)ethylsulfonamide] as the compound, how does the inhibition at 0.2 µM read?
Answer: The inhibition at 0.2 µM was 100%.

Question: What about the IC50 of the same compound?
Answer: The IC50 was 8 nM.

Question: How did the inhibition at 0.2 µM turn out when `Cc1c(N(Cc2ccc(OC(F)(F)F)cc2)S(=O)(=O)CCN2CCSCC2)sc2ccccc12` [Cpd 34, N-(3-Methylbenzo[b]thiophen-2-yl)-N-(4-trifluoromethoxy-benzyl)-2-(thiomorpholin-4-yl)ethylsulfonamide] was run?
Answer: Its inhibition at 0.2 µM is 100%.

Question: And the IC50?
Answer: The IC50 was 7 nM.
